Measurements: US20100222349A1, “QUINOLINE DERIVATIVES USED TO TREAT INFLAMMATORY AND ALLERGIC DISEASES” (Glaxo Group Limited, priority 2007, published 2010)

How the values were obtained:
human H1 receptor = target: T1, human H1 receptor (Homo sapiens, UniProt P35367); test: Histamine H1 functional antagonist assay: determination of functional pKi values (FLIPR); type: cell-based; conditions: CHO cells expressing human H1 receptor, histamine at EC80, read-out: average pKi (pKb) at H1 (converted)
T1 construct: expressed in transfected cells
Protocol: The human H1 receptor is cloned using known procedures described in the literature [Biochem. Biophys. Res. Commun., 201(2):894 (1994)]. Chinese hamster ovary (CHO) cells stably expressing the human H1 receptor are generated according to known procedures described in the literature [Br. J. Pharmacol., 117(6):1071 (1996)]. The histamine H1 cell line is seeded into non-coated black-walled clear bottom 384-well tissue culture plates in alpha minimum essential medium (Gibco/Invitrogen, cat no. 22561-021), supplemented with 10′)/0 dialysed foetal calf serum (Gibco/Invitrogen cat no. 12480-021) and 2 mM L-glutamine (Gibco/Invitrogen cat no 25030-024) and is maintained overnight at 5% CO2, 37° C. Excess medium is removed from each well to leave 10 μl. 30 μl loading dye (250 μM Brilliant Black, 2 μM Fluo-4 diluted in Tyrodes buffer+probenecid (145 mM NaCl, 2.5 mM KCl, 10 mM HEPES, 10 mM D-glucose, 1.2 mM MgCl2, 1.5 mM CaCl2, 2.5 mM probenecid, pH adjusted to 7.40 with NaOH 1.0 M)) is added to each well and the plates are incubated for 60 min at 5% CO2, 37° C. 10 μl of test compound, diluted to the required concentration in Tyrodes buffer+probenecid (or 10 μl Tyrodes buffer+probenecid as a control) is added to each well and the plate is incubated for 30 min at 37° C., 5% CO2. The plates are then placed into a FLIPR™(Molecular Devices, UK) to monitor cell fluorescence (λex=488 nm, λEM=540 nm) in the manner described in Sullivan et al., (In: Lambert DG (ed.), Calcium Signaling Protocols, New Jersey: Humana Press, 1999, 125-136) before and after the addition of 10 μl histamine at a concentration that results in the final assay concentration of histamine being EC80. Functional antagonism is indicated by a suppression of histamine induced increase in fluorescence, as measured by the FLIPR™ system (Molecular Devices). By means of concentration effect curves, functional affinities are determined using standard pharmacological mathematical analysis.

histamine H3 receptor = target: T2, histamine H3 receptor (Homo sapiens, UniProt Q9Y5N1); test: Histamine H3 functional antagonist assay (GTPγS, membranes); type: biochemical; conditions: CHO K1 membranes, [35S]-GTPγS, histamine at EC80; read-out: average pKi (pKb) at H3 (converted)
T2 construct: expressed in transfected cells; host or cells: CHO K1 cells with pSwitch/pGeneH3 (GeneSwitch, mifepristone-induced), clone 3H3; membrane preparation
Protocol: The histamine H3 cDNA is isolated from its holding vector, pcDNA3.1 TOPO (InVitrogen), by restriction digestion of plasmid DNA with the enzymes BamH1 and Not-1 and is ligated into the inducible expression vector pGene (InVitrogen) digested with the same enzymes. The GeneSwitchTM system (a system where in transgene expression is switched off in the absence of an inducer and switched on in the presence of an inducer) is performed as described in U.S. Pat. Nos. 5,364,791; 5,874,534; and 5,935,934. Ligated DNA is transformed into competent DH5α E. coli host bacterial cells and is plated onto Luria Broth (LB) agar containing ZeocinTM (an antibiotic which allows the selection of cells expressing the sh ble gene which is present on pGene and pSwitch) at 50 μgml^-1. Colonies containing the re-ligated plasmid are identified by restriction analysis. DNA for transfection into mammalian cells is prepared from 250 ml cultures of the host bacterium containing the […]3 plasmid and is isolated using a DNA preparation kit (Qiagen Midi-Prep) as per manufacturers guidelines (Qiagen). CHO K1 cells previously transfected with the pSwitch regulatory plasmid (InVitrogen) are seeded at 2×10^6 cells per T75 flask in Complete Medium, containing Hams F12 (GIBCOBRL, Life Technologies) medium supplemented with 10% v/v dialysed foetal bovine serum, L-glutamine, and hygromycin (100 μgml^-1), 24 h prior to use. Plasmid DNA is transfected into the cells using Lipofectamine plus according to the manufacturer's guidelines (InVitrogen). 48 h post transfection, cells are placed into complete medium supplemented with 500 μgml^-1 ZeocinTM. 10-14 days post selection, 10 nM Mifepristone (InVitrogen) is added to the culture medium to induce the expression of the receptor. 18 h post induction, cells are detached from the flask using ethylenediamine tetra-acetic acid (EDTA; 1:5000; InVitrogen), following several washes with PBS, pH 7.4 and are resuspended in Sorting Medium containing Minimum Essential Medium (MEM), without phenol red, and are supplemented with Earles salts and 3% Foetal Clone II (Hyclone). Approximately 1×10^7 cells are examined for receptor expression by staining with a rabbit polyclonal antibody, 4a, raised against the N-terminal domain of the histamine H3 receptor, are incubated on ice for 60 min, followed by two washes in sorting medium. Receptor bound antibody is detected by incubation of the cells for 60 min on ice with a goat anti rabbit antibody, conjugated with Alexa 488 fluorescence marker (Molecular Probes). Following two further washes with Sorting Medium, cells are filtered through a 50 μm FilconTM (BD Biosciences) and then are analysed on a FACS Vantage SE Flow Cytometer fitted with an Automatic Cell Deposition Unit. Control cells are non-induced cells treated in an analogous manner. Positively stained cells are sorted as single cells into 96-well plates, containing Complete Medium containing 500 μgml^-1 ZeocinTM and are allowed to expand before reanalysis for receptor expression via antibody and ligand binding studies. One clone, 3H3, is selected for membrane preparation. All steps of the protocol are carried out at 4° C. and with pre-cooled reagents. The cell pellet is resuspended in 10 volumes of homogenisation buffer (50 mM N-2-hydroxyethylpiperazine-N'-2-ethanesulfonic acid (HEPES), 1 mM ethylenediamine tetra-acetic acid (EDTA), pH 7.4 with KOH, supplemented with 10^-6 M leupeptin (acetyl-leucyl-leucyl-arginal; Sigma L2884), 25 μgml^-1 bacitracin (Sigma B0125), 1 mM phenylmethylsulfonyl fluoride (PMSF) and 2×10^-6 M pepstain A (Sigma)). The cells are then homogenised by 2×15 sec bursts in a 1 L glass Waring blender, followed by centrifugation at 500 g for 20 min. The supernatant is then spun at 48,000 g for 30 min. The pellet is resuspended in homogenisation buffer (4× the volume of the original cell pellet) by vortexing for 5 sec, followed by homogenisation in a Dounce homogeniser (10-15 strokes). […]

T2 sequence (Q9Y5N1 whole entry, species assumed): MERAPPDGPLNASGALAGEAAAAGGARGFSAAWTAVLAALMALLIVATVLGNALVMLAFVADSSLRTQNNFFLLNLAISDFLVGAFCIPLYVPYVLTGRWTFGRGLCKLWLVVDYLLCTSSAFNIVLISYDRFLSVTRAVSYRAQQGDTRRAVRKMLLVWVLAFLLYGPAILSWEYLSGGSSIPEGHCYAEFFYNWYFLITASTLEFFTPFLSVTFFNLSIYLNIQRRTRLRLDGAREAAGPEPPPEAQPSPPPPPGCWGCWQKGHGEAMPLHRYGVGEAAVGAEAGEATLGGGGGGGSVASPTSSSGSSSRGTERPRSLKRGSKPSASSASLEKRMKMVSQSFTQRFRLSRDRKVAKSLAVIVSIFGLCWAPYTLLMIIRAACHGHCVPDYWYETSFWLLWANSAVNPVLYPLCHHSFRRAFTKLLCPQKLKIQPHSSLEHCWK
T1 sequence (P35367 whole entry): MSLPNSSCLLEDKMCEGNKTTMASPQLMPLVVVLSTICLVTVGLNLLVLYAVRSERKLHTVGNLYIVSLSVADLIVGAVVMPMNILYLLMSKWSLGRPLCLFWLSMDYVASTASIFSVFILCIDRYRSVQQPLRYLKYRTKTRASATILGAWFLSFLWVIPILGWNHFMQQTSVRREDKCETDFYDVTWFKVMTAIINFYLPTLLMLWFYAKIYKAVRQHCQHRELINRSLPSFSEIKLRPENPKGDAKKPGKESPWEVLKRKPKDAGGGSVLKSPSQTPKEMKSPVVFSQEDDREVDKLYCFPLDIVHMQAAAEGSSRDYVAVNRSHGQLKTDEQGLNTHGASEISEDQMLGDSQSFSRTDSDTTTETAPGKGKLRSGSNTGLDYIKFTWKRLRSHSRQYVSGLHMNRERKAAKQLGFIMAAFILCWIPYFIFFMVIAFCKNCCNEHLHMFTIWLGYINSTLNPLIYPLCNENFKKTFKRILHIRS

CCCCc1cc(OC2CCN(CCCC(=O)NC(C)(C)C)CC2)c2ncccc2c1 [Example 6, 4-{4-[(6-Butyl-8-quinolinyl)oxy]-1-piperidinyl}-N-(1,1-dimethylethyl)butanamide] gave a Ki (human H1 receptor) of less than 10 nM and a Ki (histamine H3 receptor) greater than 316 nM.

Work on CCCCCc1cc(OC2CCN(CCCC(=O)N(CC)CC)CC2)c2ncccc2c1 [Example 89, N,N-Diethyl-4-{4-[(6-pentyl-8-quinolinyl)oxy]-1-piperidinyl}butanamide] yielded a Ki (human H1 receptor) of less than 100 nM and a Ki (histamine H3 receptor) greater than 316 nM.

With CCCCc1cc(O[C@@H]2CCN(CCC(=O)N(CC)CC)C2)c2ncccc2c1 [Example 35, 3-{(3R)-3-[(6-butyl-8-quinolinyl)oxy]-1-pyrrolidinyl}-N,N-diethylpropanamide] the Ki (human H1 receptor) was less than 10 nM and the Ki (histamine H3 receptor) was greater than 316 nM.

With CCCCc1cc(OC2CCN(C[C@H]3CC[C@H](C(=O)NCc4ccc(C)cc4)CC3)CC2)c2ncccc2c1 [Example 60, trans-4-({4-[(6-butyl-8-quinolinyl)oxy]-1-piperidinyl}methyl)-N-[(4-methylphenyl)methyl]cyclohexane carboxamide] the Ki (human H1 receptor) was less than 100 nM and the Ki (histamine H3 receptor) was greater than 316 nM.

In the case of CCCCc1cc(OC2CCN(C[C@H]3CC[C@H](C(=O)NCC(C)(C)C)CC3)CC2)c2ncccc2c1 [Example 46, trans-4-({4-[(6-butyl-8-quinolinyl)oxy]-1-piperidinyl}methyl)-N-(2,2-dimethylpropyl) cyclohexane carboxamide], the Ki (human H1 receptor) is reported as less than 100 nM and the Ki (histamine H3 receptor) is reported as greater than 316 nM.

Compound CCCCc1cc(OC2CCN(CCCCNC(=O)CCCOC)CC2)c2ncccc2c1 [Example 84, N-(4-{4-[(6-butyl-8-quinolinyl)oxy]-1-piperidinyl}butyl)-4-(methyloxy) butanamide] has a Ki (human H1 receptor) of less than 10 nM and a Ki (histamine H3 receptor) greater than 316 nM.

CCCCCc1cc(OC2CCN(CCCNC(=O)CC)CC2)c2ncccc2c1 [Example 90, N-(3-{4-[(6-Pentyl-8-quinolinyl)oxy]-1-piperidinyl}propyl)propanamide] was tested, and the Ki (human H1 receptor) was less than 10 nM and the Ki (histamine H3 receptor) was greater than 316 nM.

CCCCc1cc(OC2CCN(CCNC(=O)CCC)CC2)c2ncccc2c1 [Example 74, N-(2-{4-[(6-butyl-8-quinolinyl)oxy]-1-piperidinyl}ethyl) butanamide] gave a Ki (human H1 receptor) of less than 10 nM and a Ki (histamine H3 receptor) greater than 316 nM.

With CCCCc1cc(OC2CCN(CCCCC(=O)N(CC)CC)CC2)c2ncccc2c1 [Example 27, 5-{4-[(6-butyl-8-quinolinyl)oxy]-1-piperidinyl}-N,N-diethylpentanamide] the Ki (human H1 receptor) was less than 10 nM and the Ki (histamine H3 receptor) was greater than 3160 nM.

Work on CCCCc1cc(OC2CCN(CCCCC(=O)NC(C)(C)C)CC2)c2ncccc2c1 [Example 30, 5-{4-[(6-butyl-8-quinolinyl)oxy]-1-piperidinyl}-N-(1,1-dimethylethyl) pentanamide] yielded a Ki (human H1 receptor) of less than 100 nM and a Ki (histamine H3 receptor) greater than 3160 nM.

CCCCCCc1cc(OC2CCN(C[C@H]3CC[C@H](C(=O)N4CCCC4)CC3)CC2)c2ncccc2c1 [Example 54, 6-hexyl-8-[(1-{[trans-4-(1-pyrrolidinylcarbonyl)cyclohexyl]methyl}-4-piperidinyl)oxy]quinoline] gave a Ki (human H1 receptor) of less than 100 nM and a Ki (histamine H3 receptor) greater than 316 nM.

CCCCCc1cc(OC2CCN(CCCNC(=O)C(C)(C)C)CC2)c2ncccc2c1 [Example 91, 2,2-Dimethyl-N-(3-{4-[(6-pentyl-8-quinolinyl)oxy]-1-piperidinyl}propyl) propanamide] showed a Ki (human H1 receptor) of less than 10 nM and a Ki (histamine H3 receptor) greater than 316 nM.

CCCCc1cc(OC2CCN(CCNC(=O)C(C)C)CC2)c2ncccc2c1 [Example 71, N-(2-{4-[(6-butyl-8-quinolinyl)oxy]-1-piperidinyl}ethyl)-2-methylpropanamide] was tested, and the Ki (human H1 receptor) was less than 10 nM and the Ki (histamine H3 receptor) was greater than 316 nM.

Compound CCCCc1cc(OC2CCN(CCCCNC(=O)C(C)C)CC2)c2ncccc2c1 [Example 66, N-(4-{4-[(6-butyl-8-quinolinyl)oxy]-1-piperidinyl}butyl)-2-methylpropanamide] has a Ki (human H1 receptor) of less than 100 nM and a Ki (histamine H3 receptor) greater than 316 nM.

Work on CCCCCc1cc(OC2CCN(CCCC(=O)NC(C)(C)C)CC2)c2ncccc2c1 [Example 88, N-(1,1-dimethylethyl)-4-{4-[(6-pentyl-8-quinolinyl)oxy]-1-piperidinyl}butanamide] yielded a Ki (human H1 receptor) of less than 10 nM and a Ki (histamine H3 receptor) greater than 316 nM.
